Measured values as given in PubChem BioAssay (NCI).
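48-hour exposure; five concentrations; linearly interpolated endpoints. TGI: concentration producing complete growth inhibition.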

Columns and labels:
Assay in all cases: DTP human tumour cell line panel, 48 h
HOP-62 NSCLC = tested on: HOP-62 NSCLC
HOP-92 NSCLC = tested on: HOP-92 NSCLC
SF-295 CNS = tested on: SF-295 CNS
OVCAR-8 ovarian = tested on: OVCAR-8 ovarian
SK-MEL-28 melanoma = tested on: SK-MEL-28 melanoma
HL-60(TB) leukemia = tested on: HL-60(TB) leukemia
A549 NSCLC = tested on: A549 NSCLC
SK-MEL-5 melanoma = tested on: SK-MEL-5 melanoma
MALME-3M melanoma = tested on: MALME-3M melanoma
SR leukemia = tested on: SR leukemia
HCC-2998 colon = tested on: HCC-2998 colon
SW-620 colon = tested on: SW-620 colon
UACC-257 melanoma = tested on: UACC-257 melanoma
UACC-62 melanoma = tested on: UACC-62 melanoma
NCI-H460 lung = tested on: NCI-H460 lung
DMS 273 small cell lung = tested on: DMS 273 small cell lung
CCRF-CEM leukemia = tested on: CCRF-CEM leukemia
MOLT-4 leukemia = tested on: MOLT-4 leukemia
SNB-75 CNS = tested on: SNB-75 CNS
HCT-15 colon = tested on: HCT-15 colon
786-0 renal = tested on: 786-0 renal
SF-539 CNS = tested on: SF-539 CNS
OVCAR-3 ovarian = tested on: OVCAR-3 ovarian
NCI-H23 lung = tested on: NCI-H23 lung
OVCAR-4 ovarian = tested on: OVCAR-4 ovarian
COLO 205 colon = tested on: COLO 205 colon
LOX IMVI melanoma = tested on: LOX IMVI melanoma
SNB-19 CNS = tested on: SNB-19 CNS
SK-OV-3 ovarian = tested on: SK-OV-3 ovarian
M14 melanoma = tested on: M14 melanoma
M19-MEL melanoma = tested on: M19-MEL melanoma
NCI-H522 lung = tested on: NCI-H522 lung
EKVX NSCLC = tested on: EKVX NSCLC
UO-31 renal = tested on: UO-31 renal
LXFL 529 NSCLC = tested on: LXFL 529 NSCLC
SN12C renal = tested on: SN12C renal
KM12 colon = tested on: KM12 colon
RXF-631 renal = tested on: RXF-631 renal
KM20L2 colon = tested on: KM20L2 colon
CAKI-1 renal = tested on: CAKI-1 renal
IGROV1 ovarian = tested on: IGROV1 ovarian
HCT-116 colon = tested on: HCT-116 colon
ACHN renal = tested on: ACHN renal
HT29 colon = tested on: HT29 colon
DMS 114 small cell lung = tested on: DMS 114 small cell lung
HOP-18 NSCLC = tested on: HOP-18 NSCLC
SF-268 CNS = tested on: SF-268 CNS
TK-10 renal = tested on: TK-10 renal
RXF 393 renal = tested on: RXF 393 renal
U251 CNS = tested on: U251 CNS
RPMI-8226 leukemia = tested on: RPMI-8226 leukemia
K-562 leukemia = tested on: K-562 leukemia
SNB-78 CNS = tested on: SNB-78 CNS
XF 498 CNS = tested on: XF 498 CNS
DLD-1 colon = tested on: DLD-1 colon
NCI-H226 lung = tested on: NCI-H226 lung
OVCAR-5 ovarian = tested on: OVCAR-5 ovarian
SK-MEL-2 melanoma = tested on: SK-MEL-2 melanoma
A498 renal = tested on: A498 renal

Measured: TGI

O=C(Cc1nc2ccc(C(=O)c3ccccc3)cc2[nH]c1=O)C(=O)Nc1nc2ccccc2[nH]1
79.4 µM: DMS 114 small cell lung
> 100 µM: HOP-62 NSCLC | SF-295 CNS | OVCAR-8 ovarian | SK-MEL-28 melanoma | HL-60(TB) leukemia | A549 NSCLC | SK-MEL-5 melanoma | MALME-3M melanoma | SR leukemia | HCC-2998 colon | SW-620 colon | UACC-257 melanoma | UACC-62 melanoma | NCI-H460 lung | DMS 273 small cell lung | CCRF-CEM leukemia | MOLT-4 leukemia | SNB-75 CNS | HCT-15 colon | 786-0 renal | SF-539 CNS | OVCAR-3 ovarian | NCI-H23 lung | OVCAR-4 ovarian | COLO 205 colon | LOX IMVI melanoma | SNB-19 CNS | SK-OV-3 ovarian | M14 melanoma | M19-MEL melanoma | NCI-H522 lung | EKVX NSCLC | UO-31 renal | LXFL 529 NSCLC | SN12C renal | KM12 colon | RXF-631 renal | KM20L2 colon | CAKI-1 renal | IGROV1 ovarian | HCT-116 colon | ACHN renal | HT29 colon | HOP-18 NSCLC | SF-268 CNS | TK-10 renal
91.8 µM: HOP-92 NSCLC

COC(=O)[C@H]1COC(=S)N1C(=O)[C@@H](C)[C@H](O)C(C)C
> 100 µM: HOP-62 NSCLC | HOP-92 NSCLC | SF-295 CNS | OVCAR-8 ovarian | SK-MEL-28 melanoma | HL-60(TB) leukemia | A549 NSCLC | SK-MEL-5 melanoma | MALME-3M melanoma | SR leukemia | HCC-2998 colon | SW-620 colon | UACC-257 melanoma | RXF 393 renal | UACC-62 melanoma | NCI-H460 lung | U251 CNS | DMS 273 small cell lung | CCRF-CEM leukemia | MOLT-4 leukemia | SNB-75 CNS | HCT-15 colon | 786-0 renal | SF-539 CNS | OVCAR-3 ovarian | RPMI-8226 leukemia | NCI-H23 lung | OVCAR-4 ovarian | COLO 205 colon | LOX IMVI melanoma | SNB-19 CNS | SK-OV-3 ovarian | M14 melanoma | M19-MEL melanoma | K-562 leukemia | EKVX NSCLC | UO-31 renal | LXFL 529 NSCLC | SNB-78 CNS | SN12C renal | XF 498 CNS | KM12 colon | RXF-631 renal | KM20L2 colon | CAKI-1 renal | DLD-1 colon | IGROV1 ovarian | NCI-H226 lung | HCT-116 colon | ACHN renal | HT29 colon | DMS 114 small cell lung | HOP-18 NSCLC | OVCAR-5 ovarian | SF-268 CNS | TK-10 renal | SK-MEL-2 melanoma | A498 renal

O=C(CCC(=O)Nc1ccc(Cl)c(Cl)c1)CC(=O)c1ccc2ccccc2c1
> 100 µM: HOP-62 NSCLC | HOP-92 NSCLC | SF-295 CNS | OVCAR-8 ovarian | SK-MEL-28 melanoma | HL-60(TB) leukemia | A549 NSCLC | SK-MEL-5 melanoma | MALME-3M melanoma | HCC-2998 colon | SW-620 colon | UACC-257 melanoma | RXF 393 renal | UACC-62 melanoma | NCI-H460 lung | U251 CNS | DMS 273 small cell lung | CCRF-CEM leukemia | MOLT-4 leukemia | SNB-75 CNS | HCT-15 colon | 786-0 renal | SF-539 CNS | OVCAR-3 ovarian | RPMI-8226 leukemia | NCI-H23 lung | OVCAR-4 ovarian | LOX IMVI melanoma | SNB-19 CNS | M14 melanoma | M19-MEL melanoma | NCI-H522 lung | K-562 leukemia | EKVX NSCLC | UO-31 renal | LXFL 529 NSCLC | SNB-78 CNS | SN12C renal | KM12 colon | RXF-631 renal | KM20L2 colon | CAKI-1 renal | DLD-1 colon | IGROV1 ovarian | NCI-H226 lung | HCT-116 colon | ACHN renal | HT29 colon | DMS 114 small cell lung | HOP-18 NSCLC | OVCAR-5 ovarian | SF-268 CNS | TK-10 renal | SK-MEL-2 melanoma | A498 renal

COc1cc2c(cc1OC)C(C#N)N(C(=O)c1ccccc1)C=C2OC(=O)c1ccccc1 (stereo not drawn)
76.6 µM: SNB-78 CNS
45.4 µM: SF-295 CNS | DMS 273 small cell lung
53 µM: UACC-257 melanoma
34.7 µM: 786-0 renal
77 µM: HOP-92 NSCLC
35.2 µM: HOP-62 NSCLC
50.2 µM: MALME-3M melanoma | IGROV1 ovarian
39 µM: SF-539 CNS
47.7 µM: XF 498 CNS
89.2 µM: DMS 114 small cell lung
54.7 µM: SK-MEL-2 melanoma
50.5 µM: TK-10 renal
86 µM: SF-268 CNS
74.7 µM: U251 CNS
51.4 µM: NCI-H226 lung
> 100 µM: HL-60(TB) leukemia | SR leukemia | HCC-2998 colon | SW-620 colon | NCI-H460 lung | CCRF-CEM leukemia | MOLT-4 leukemia | HCT-15 colon | RPMI-8226 leukemia | NCI-H23 lung | COLO 205 colon | LOX IMVI melanoma | SK-OV-3 ovarian | M14 melanoma | K-562 leukemia | SN12C renal | KM12 colon | KM20L2 colon | DLD-1 colon | HT29 colon | OVCAR-5 ovarian
90.5 µM: M19-MEL melanoma
44.9 µM: SK-MEL-5 melanoma
47.4 µM: OVCAR-3 ovarian
42.5 µM: LXFL 529 NSCLC
39.2 µM: NCI-H522 lung
39.3 µM: UO-31 renal
43.6 µM: ACHN renal
71.9 µM: EKVX NSCLC
67.5 µM: SNB-19 CNS
58.1 µM: SK-MEL-28 melanoma
45 µM: UACC-62 melanoma
46.6 µM: HOP-18 NSCLC
71.8 µM: OVCAR-8 ovarian
40 µM: SNB-75 CNS
